The text below walks through data of US9060991B2, “Use of GLP-1 analogues for the treatment of disorders associated with dysfunctional synaptic transmission” (Innovation Ulster Limited, priority 2007, dated 2015).

Holding throughout (type): in vivo, Male Wistar rats
For experiment [1], the system named is long-term potentiation of synaptic transmission (EPSP slope, CA1 region of hippocampus). Put plainly: LTP in hippocampal CA1 after icv GLP-1 peptides, weak HFS protocol. Particulars: 15 nmol in 5 μl icv, LTP induced 30 min post-injection (time not given for FIG. 3A). The source says:
(§1) Male Wistar rats weighing 220-280 g were anaesthetised with urethane (ethyl carbamate, 1.8 g/kg, intraperitoneal, (i.p.)) for the duration of all experiments. The animals had been obtained from Harlan, United Kingdom (UK). A cannula (22 gauge, 0.7 mm outer diameter, 11 mm in length, Bilaney, Kent, UK) was implanted (1.5 mm anterior to bregma, 0.5 mm lateral to the midline and 3.55 mm ventral) into the left hemisphere for intracerebroventricular (icv) injections. Electrodes (tungsten with Teflon® coating, Bilaney, Kent, UK) were implanted unilaterally 3.4 mm posterior and 2.5 mm lateral to the midline, and the stimulating electrode 4.2 mm posterior to bregma and 3.8 mm lateral to the midline. […] Recordings of EPSPs were made from the stratum radiatum in the CA1 region of the right hippocampal hemisphere in response to stimulation of the Schaffer collateral/commissural pathway. Field EPSPs were recorded on a computerised stimulating and recording unit (PowerLab, ADI instruments, UK) in which the trigger threshold was adjustable. The triggered unit activated a constant current stimulus isolation unit (Neurolog, UK). The data acquisition system was triggered simultaneously to record all events. Sampling speed was at 20 kHz recording of EPSPs.
(§2) The ‘strong’ high frequency stimulation (HFS) protocol for inducing long-term potentiation (LTP) consisted of 3 trains of 200 stimuli, inter-stimulus interval 5 ms (200 Hz), inter-train interval 2 sec. […] The ‘weak’ HFS protocol for inducing LTP consisted of 10 trains of 10 stimuli, inter-stimulus interval 5 ms (200 Hz). The strong HFS was used to test the effects of peptides that impair LTP (beta-amyloid), and the weak HFS was used to test peptides that facilitate LTP. In this form of LTP, the control group is not potentiated at a maximal rate, and LTP can decay slowly over time. Stimulation intensity was 70% of the maximum EPSP. LTP was measured as % of baseline EPSP slope recorded over a 30 min period prior to drug injection and 60 min prior to application of HFS. Baseline was recorded for 30 min and averaged. This value was taken as 100% of the EPSP slope and all recoded values were normalised to this baseline value. All experiments were licensed according to UK Home Office regulations, and the “Principles of laboratory animal care” (NIH publication No. 86-23, revised 1985) were followed.
Beta-amyoid (25-35) and other peptides used in this study were synthesised on an Applied Biosystems automated peptides synthesiser (Model 432A) using standard solid-phase Fmoc protocols. Peptides were judged pure by reversed phase HPLC on a waters Millenium 2010 chromatography system, and peptides were subsequently characterised using matrix-assisted laser desorption/ionisation time of flight (MALDI-TOF) mass spectrometry as described previously (Gengler et al., 2006; Hölscher et al., 2007). Peptides were stored in dry form and dissolved in double distilled water before the experiments. 5 μl of peptides solution was injected icv.
(§3) Each group consisted of 6 animals. Data were analysed using a repeated measures two-way ANOVA, or a repeated measures three level two-way ANOVA with post-hoc tests to discriminate between groups (PRISM, GraphPad software Inc; USA). […]
Male Wistar rats were icv injected with either vehicle (Control,) or 15 nmol Val(8)GLP-1 (♦). LTP was induced 30 min post-injection using the HFS (weak protocol), and the change in EPSP assessed and graphed to represent the change in LTP (FIG. 3B). […]

For experiment [2] the test system is unchanged. Put plainly: Val(8)GLP-1 against beta-amyloid(25-35)-induced impairment of LTP. Particulars: for impairing effect of beta-amyloid on LTP: LTP induced 15 min post-βA injection.
From the text: as §1, §2
Beta-amyoid (25-35) and other peptides used in this study were synthesised on an Applied Biosystems automated peptides synthesiser (Model 432A) using standard solid-phase Fmoc protocols. […]
as §3

For experiment [3] the test system is unchanged. Put plainly: LTP in hippocampal CA1 after icv beta-amyloid(25-35), strong HFS protocol. Particulars: LTP induced 15 min post-injection, control = scrambled peptide. The source says: Male Wistar rats weighing 220-280 g were anaesthetised with urethane (ethyl carbamate, 1.8 g/kg, intraperitoneal, (i.p.)) for the duration of all experiments. The animals had been obtained from Harlan, United Kingdom (UK). A cannula (22 gauge, 0.7 mm outer diameter, 11 mm in length, Bilaney, Kent, UK) was implanted (1.5 mm anterior to bregma, 0.5 mm lateral to the midline and 3.55 mm ventral) into the left hemisphere for intracerebroventricular (icv) injections. Electrodes (tungsten with Teflon® coating, Bilaney, Kent, UK) were implanted unilaterally 3.4 mm posterior and 2.5 mm lateral to the midline, and the stimulating electrode 4.2 mm posterior to bregma and 3.8 mm lateral to the midline. […] Field EPSPs were recorded on a computerised stimulating and recording unit (PowerLab, ADI instruments, UK) in which the trigger threshold was adjustable. […]
The ‘strong’ high frequency stimulation (HFS) protocol for inducing long-term potentiation (LTP) consisted of 3 trains of 200 stimuli, inter-stimulus interval 5 ms (200 Hz), inter-train interval 2 sec. […] LTP was measured as % of baseline EPSP slope recorded over a 30 min period prior to drug injection and 60 min prior to application of HFS. Baseline was recorded for 30 min and averaged. […]
LTP was induced 15 min post-injection using the HFS (strong protocol), and the change in EPSP assessed and graphed to represent the change in LTP (FIG. 2). […]

Where no end group is shown, it is not given here.

“Asp(7)GLP-1: analogue of human GLP-1 with Asp at position 7, SEQ ID NO: 3 (DAEGTFTSDVSSYLEGQAAKEFIAWLVKGR; Synthetic peptide analogue derived from human GLP-1)”: the “effect on LTP (change in EPSP) versus control” value in experiment [1] is “enhanced long-term potentiation (LTP) compared with control”.

Consider “GLP-1(7-36)amide: the natural hormone GLP-1(7-36)amide (HAEGTFTSDVSSYLEGQAAKEFIAWLVKGR-NH2; listed as Homo sapiens) [reference compound]”, for which, in experiment [1], the “effect on LTP (change in EPSP) versus control” value is “difference between the GLP-1(7-36)amide group and control”.

For GLP-1(9-36)amide [reference compound], the “effect on LTP (change in EPSP) versus control” value in experiment [1] is “no difference between the GLP-1(9-36)amide group and the control group”.

On to “Pro(9)GLP-1: analogue of human GLP-1 with Pro at position 9, SEQ ID NO: 5 (HAPGTFTSDVSSYLEGQAAKEFIAWLVKGR; Synthetic peptide analogue derived from human GLP-1)”, for which, in experiment [1], the “effect on LTP (change in EPSP) versus control” value is “enhanced long-term potentiation (LTP) compared with control”.

“Val(8)GLP-1: analogue of human GLP-1 with Val at position 8, SEQ ID NO: 4”: the “impairing effect of beta-amyloid on LTP” value in experiment [2] (Val(8)GLP-1 15 nmol icv 15 min before beta-amyloid(25-35) 100 nmol icv) is given as “not significantly affected, but a trend became visible”; in experiment [2] (Val(8)GLP-1 15 nmol icv 30 min before beta-amyloid(25-35) 100 nmol icv), “completely reversed”; in experiment [2] (Val(8)GLP-1 15 nmol icv simultaneously with beta-amyloid(25-35) 100 nmol icv), “not affected”. The “effect on LTP (change in EPSP) versus control” value in experiment [1] is reported as “can enhance the induction of LTP”.

With “βA(25-35): beta-amyloid fragment 25-35, peptide that impairs LTP (GSNKGAIIGLM; Amyloid-beta protein 42; UniProt P05067 696-706, looked up, fragment)”, the “effect on LTP (change in EPSP) versus vehicle control” value in experiment [2] (beta-amyloid(25-35) alone, 100 nmol icv, LTP induced 15 min post-injection, FIG. 4A-4C experiments) was “difference between the beta-amyloid(25-35) group and control”. Moreover, the “effect on LTP (change in EPSP) versus control” value in experiment [3] (10 nmol icv) is “difference between the 10 nmol group and control”; in experiment [3] (100 nmol icv), “difference between the 100 nmol group and control”.
